Columns and labels:
Assay type in all cases: functional, cell-based
MCF7 = assay: Antiproliferative activity against human MCF7 cells after 48 hrs by MTT/quantitative colorimetric method; settings: MCF7, 48 h
HeLa = assay: Antiproliferative activity against human HeLa cells after 48 hrs by MTT/quantitative colorimetric method
DU-145 = assay: Antiproliferative activity against human DU145 cells after 48 hrs by MTT/quantitative colorimetric method; settings: DU-145, 48 h
A549 = assay: Antiproliferative activity against human A549 cells after 48 hrs by MTT/quantitative colorimetric method; settings: A549, 48 h

Compound	IC50 (MCF7)	IC50 (HeLa)	IC50 (DU-145)	IC50 (A549)
Cn1c2c(c3ccccc31)CCC(=O)N(c1ccc(Cl)cc1)C2C(=O)NC(C)(C)C (configuration not stated)	18 µM	13 µM	21 µM	18 µM
Cn1c2c(c3ccccc31)CC(=O)N(c1ccc(F)cc1)C2C(=O)NC1CCCCC1 (configuration not stated)	50 µM	11 µM	47 µM	62 µM
Cn1c2c(c3ccccc31)CCC(=O)N(c1cccc(F)c1)C2C(=O)NC1CCCCC1 (configuration not stated)	94 µM	44 µM	52 µM	> 100 µM
Cn1c2c(c3ccccc31)CC(=O)N(c1ccc(Br)cc1)C2C(=O)NC1CCCCC1 (configuration not stated)	52 µM	49 µM	45 µM	> 100 µM
Cc1ccc(C)c(N2C(=O)Cc3c(n(C)c4ccccc34)C2C(=O)NC2CCCCC2)c1 (configuration not stated)	95 µM	> 100 µM	> 100 µM	> 100 µM
Cc1ccc(C)c(N2C(=O)CCc3c(n(C)c4ccccc34)C2C(=O)NC2CCCCC2)c1 (configuration not stated)	> 100 µM	> 100 µM	> 100 µM	> 100 µM
Cn1c2c(c3ccccc31)CCC(=O)N(c1ccc(Br)cc1)C2C(=O)NC1CCCCC1 (configuration not stated)	78 µM	63 µM	55 µM	> 100 µM
Cn1c2c(c3ccccc31)CC(=O)N(c1ccc(F)c(Cl)c1)C2C(=O)NC(C)(C)C (configuration not stated)	> 100 µM	> 100 µM	95 µM	80 µM
Cn1c2c(c3ccccc31)CCC(=O)N(c1ccc(F)c(Cl)c1)C2C(=O)NC(C)(C)C (configuration not stated)	> 100 µM	67 µM	56 µM	35 µM
Cn1c2c(c3ccccc31)CCC(=O)N(c1ccc(F)cc1)C2C(=O)NC1CCCCC1 (configuration not stated)	50 µM	48 µM	90 µM	59 µM

The remaining lines, values ahead:

IC50 (MCF7)	IC50 (HeLa)	IC50 (DU-145)	IC50 (A549)	Compound
61 µM	26 µM	78 µM	> 100 µM	Cn1c2c(c3ccccc31)CC(=O)N(c1ccc(F)cc1)C2C(=O)NC(C)(C)C (configuration not stated)
50 µM	46 µM	70 µM	> 100 µM	Cn1c2c(c3ccccc31)CCC(=O)N(c1ccc(F)cc1)C2C(=O)NC(C)(C)C (configuration not stated)
54 µM	> 100 µM	82 µM	> 100 µM	Cn1c2c(c3ccccc31)CCC(=O)N(c1ccc(F)c(Cl)c1)C2C(=O)NC1CCCCC1 (configuration not stated)
95 µM	25 µM	> 100 µM	85 µM	Cn1c2c(c3ccccc31)CC(=O)N(c1cccc(F)c1)C2C(=O)NC1CCCCC1 (configuration not stated)
96 µM	83 µM	> 100 µM	63 µM	Cn1c2c(c3ccccc31)CC(=O)N(c1ccc(Cl)cc1)C2C(=O)NC(C)(C)C (configuration not stated)
29 µM	12 µM	13 µM	27 µM	Cn1c2c(c3ccccc31)CCC(=O)N(c1ccc(Cl)cc1)C2C(=O)NC1CCCCC1 (configuration not stated)
87 µM	95 µM	63 µM	49 µM	Cc1ccc(C)c(N2C(=O)Cc3c(n(C)c4ccccc34)C2C(=O)NC(C)(C)C)c1 (configuration not stated)
> 100 µM	55 µM	42 µM	59 µM	Cn1c2c(c3ccccc31)CC(=O)N(c1ccc(Cl)cc1)C2C(=O)NC1CCCCC1 (configuration not stated)

— ChEMBL document CHEMBL3351556, “Thee-component, one-pot synthesis of hexahydroazepino[3,4-b]indole and tetrahydro-1H-pyrido[3,4-b]indole derivatives and evaluation of their cytotoxicity” (Bioorg Med Chem Lett, 2014)
